{
  "source": "patent US12296018B2",
  "about": "“Albumin binding peptide-drug (AlBiPeD) conjugates and methods of making and using same” (priority 2018, dated 2025)",
  "key": {"[1]": {"target": "T1, human serum albumin (HSA) (Homo sapiens, UniProt P02768)", "T1 construct": "purchased Sigma-Aldrich (St. Louis, MO)", "assay": "Native-PAGE mobility shift with HSA", "type": "binding", "conditions": "1:1 molar ratio", "protocol": "The gel was stained with SimplyBlue stain according to the manufacturer's instructions and imaged using the Gel Doc imaging system (Bio-Rad, Hercules, CA). Isothermal titration calorimetry was done using a standard volume Nano ITC from TA instruments (Lindon, Utah). […] The calorimetric data were analyzed by NanoAnalyze software (TA instruments, Lindon, UT) and were fit to an independent binding site model to compute the thermodynamic parameters including dissociation constant (KD), binding stoichiometry (n), enthalpy (ΔH), and entropy (ΔS)."}, "[2]": {"system": "C26 colon carcinoma tumors", "assay": "In vivo tumor regression, syngeneic C26 model", "set-up": "species or system BALB/c mice", "protocol": "(§1) In vivo tumor regression For in vivo tumor implantation, C26 cells at 5×10^5 cells in 30 μL Minimum Essential Medium (MEM) (Invitrogen, Carlsbad, CA) and MIA PaCa-2 cells at 2×10^6 cells in 50 μL 10:90 v/v MEM: Matrigel matrix (Corning Inc, Corning, New York) were inoculated in the right flank of normal and athymic nude BALB/c mice, respectively. Tumor cells were allowed to grow until the tumor volume, calculated as π/6×length×width^2, reached 75-100 mm^3 for C26 tumors and 100-125 mm^3 for MIA PaCa-2 tumors. Tumor bearing mice were then treated with ABD-Dox at 10 and 20 mg Dox Equiv.kg^−1 BW, AlDox at 20 mg Dox Equiv.kg^−1 BW, and free Dox at 10 mgkg^−1 BW. Tumor volumes and body weights were monitored for 100 days after treatment and mice displaying excessive tumor volume (>[…]), body weight loss (>15%), or ill health were euthanized. Tumor growth and survival data were analyzed by GraphPad Prism software. Survival curves were generated with the Kaplan-Meier method and compared with the log-rank (Mantel-Cox) test. Tumor growth data were compared with a paired one-way ANOVA followed by Tukey-Kramer (Tukey's) post-hoc test. P<0.05 was considered as statistically significant.\n(§2) For in vivo tumor regression studies, a single dose of ABD-Dox was injected via tail vein at 10 mg Dox Equiv.kg^−1 BW (MTD of free Dox) and 20 mg Dox Equiv.kg^−1 BW (MTD of ABD-Dox) in separate cohorts of BALB/c mice with s.c. C26 tumors or nude mice with s.c. MIA Paca-2 tumors. Free Dox was injected at its MTD of 10 mgkg-1 BW, and AlDox was injected at 20 mg Dox Equiv.kg^−1 BW, a dose that was reported to be safe in previous studies. All animals were injected when the tumors were 75-100 mm; in size for C26 tumors and 100-125 mm^3 for MIA PaCa-2 tumors."}, "[3]": {"system": "MIA PaCa-2 pancreatic tumor xenografts", "assay": "In vivo tumor regression, MIA PaCa-2 xenograft model", "set-up": "species or system nude BALB/c mice", "protocol": "as §1, §2"}, "[4]": {"conditions": "single dose 10 mg Dox Equiv.kg^−1 BW"}, "[5]": {"conditions": "single dose 20 mg Dox Equiv.kg^−1 BW"}},
  "data": [
    {"substance": "ABD-Dox (GLAEAKVLANRELDKYGVSDYYKNLINNAKTVEGVKALIDEILAALPCGGCGGCGGCGG)", "values": [
      {"measurement": "binding to HSA by mobility shift", "setting": "[1]", "value": "confirmed binding"},
      {"measurement": "tumor disappearance", "setting": "[2]; 10 mg Dox Equiv.kg^−1 BW", "value": "complete tumor disappearance within 2 weeks"},
      {"measurement": "tumor recurrence in mice with eradicated tumors", "setting": "[2]; 10 mg Dox Equiv.kg^−1 BW", "value": 33, "unit": "%"},
      {"measurement": "eradication of C26 tumors", "setting": "[2]; 20 mg Dox Equiv.kg^−1 BW", "value": "incomplete eradication"},
      {"measurement": "mice that did not survive over the 100-day course of study", "setting": "[2]; 20 mg Dox Equiv.kg^−1 BW", "value": 75, "unit": "%"},
      {"measurement": "recurrence of the primary tumor", "setting": "[2]; 20 mg Dox Equiv.kg^−1 BW", "value": "without recurrence of the primary tumor in any mice"},
      {"measurement": "therapeutic efficacy vs AlDox in terms of overall survival", "setting": "[2]; 20 mg Dox Equiv.kg^−1 BW", "value": "higher"},
      {"measurement": "therapeutic efficacy vs AlDox with respect to tumor regression", "setting": "[2]; 20 mg Dox Equiv.kg^−1 BW", "value": "equivalent"},
      {"measurement": "survival compared with free Dox (10 mgkg^−1 BW)", "setting": "[2]; [4]", "value": "superior efficacy"},
      {"measurement": "tumor regression compared with free Dox (10 mgkg^−1 BW)", "setting": "[2]; [4]", "value": "superior efficacy"},
      {"measurement": "survival compared with free Dox (10 mgkg^−1 BW)", "setting": "[2]; [5]", "value": "superior efficacy"},
      {"measurement": "tumor regression compared with free Dox (10 mgkg^−1 BW)", "setting": "[2]; [5]", "value": "superior efficacy"},
      {"measurement": "survival compared with free Dox", "setting": "[3]; 10 mg Dox Equiv.kg^−1 BW", "value": "No significant difference"},
      {"measurement": "survival compared with AlDox", "setting": "[3]; 20 mg Dox Equiv.kg^−1 BW", "value": "No significant difference"},
      {"measurement": "survival compared with free Dox", "setting": "[3]; 20 mg Dox Equiv.kg^−1 BW", "value": "significantly longer survival"},
      {"measurement": "tumor regression compared with AlDox", "setting": "[3]; 20 mg Dox Equiv.kg^−1 BW", "value": "superior tumor regression efficacy"},
      {"measurement": "tumor-free period compared with AlDox", "setting": "[3]; 20 mg Dox Equiv.kg^−1 BW, 100-day span", "value": "longer tumor-free period"},
      {"measurement": "mice showing tumor disappearance", "setting": "[3]; by day 15 after treatment, 20 mg Dox Equiv.kg^−1 BW", "value": "all"},
      {"measurement": "tumor recurrence in tumor-eradicated mice", "setting": "[3]; throughout the 100 day course of study, 20 mg Dox Equiv.kg^−1 BW", "value": 25, "unit": "%"}
    ]}
  ]
}
